# Reference: PubChem BioAssay AID449750 (Broad Institute, 2010)
# Calls of active or inactive are those of the source. The rule behind the calls is not given here.
# Experiment: non-covalent RecA intein splicing inhibitors, dose response, biochemical, cell-free, fluorescence, secondary screen (AID 449750)
row,SMILES,AC50
1,CC(C)(c1ccccc1)c1ccc(OCC2CO2)cc1 (centres undefined),8.68 µM
2,Nc1c(O)cccc1C(=O)O,27.2 µM
3,CCN(CC)CCN1C(=O)C(O)=C(C(C)=O)C1c1ccccc1[N+](=O)[O-] (centres undefined),37.7 µM
4,O=C(N/N=C/c1ccc([N+](=O)[O-])o1)c1ccccc1NS(=O)(=O)c1cccs1,> 38 µM (inactive)
5,Cc1ccc(N2C(=O)C(Cl)=C(N3CCN(C)CC3)C2=O)c(C)c1,> 38 µM (inactive)
6,C#CCOc1ccc(/C=C2/C(=O)N(c3cccc(C(=O)O)c3)N=C2C)cc1OC,2.79 µM
7,CC1CCc2c(c3ccccc3n2C(=O)CCl)C1 (centres undefined),6.54 µM
8,CC1(C)CC2(C)OC(=N)C1(C#N)C2(C#N)C#N (centres undefined),> 38 µM (inactive)
9,O=C(CCN1C(=O)/C(=C/c2cccs2)SC1=S)Nc1cccc(O)c1,> 38 µM (inactive)
10,CCCCn1c(N)c(C(=O)NCc2cccs2)c2nc3ccccc3nc21,> 38 µM (inactive)
11,COc1cc(C(c2c(C)[nH][nH]c2=O)c2c(C)[nH][nH]c2=O)cc(Br)c1OC,13.9 µM
12,Cc1ccc(C)c(S(=O)(=O)Nc2ccc(O)c3ccccc23)c1,0.598 µM
13,O=C1C(Cl)=C(NCc2cccnc2)C(=O)c2ccccc21,13.6 µM
14,CN1CCN(C2=C(Cl)C(=O)C(c3cnc(N4CCCCC4)s3)=C(Cl)C2=O)CC1,3.1 µM
15,CCOC(=O)c1nc(C)n(-c2ccc(Cl)cc2)n1,> 38 µM (inactive)
16,CC(=O)c1ccc(-c2cccc(-c3nc4ccccn4c3NC3CCCCC3)c2)cc1,6.79 µM
17,Cc1nn(-c2ccccc2)c2c1C(c1cccs1)C(C#N)=C(N)O2 (centres undefined),18.3 µM
18,CCOc1ccc(Cl)cc1C(c1c(C)[nH][nH]c1=O)c1c(C)[nH][nH]c1=O,12 µM
19,COc1cc(Br)c(C(=O)c2nccc3cc(OC)c(OC)cc23)cc1OC,6.24 µM
20,CCCCCC(=O)O[C@]1(C(C)=O)CC[C@H]2[C@@H]3CCC4=CC(=O)CC[C@]4(C)[C@H]3CC[C@@]21C,2.02 µM
21,Cc1cc(C(=O)c2ccccc2)c(NC(=O)CCl)s1,7.09 µM
22,CC1=NNC(=O)C1C(c1cccc(O)c1)C(C#N)C#N (centres undefined),> 38 µM (inactive)
23,COC(=O)c1cccc(-c2ccc(C(c3c(C)[nH][nH]c3=O)c3c(C)[nH][nH]c3=O)o2)c1,3.29 µM
24,CCOc1ccc(-n2c(C)cc(C(=O)CCl)c2C)cc1,9.25 µM
25,O=C1NC(c2ccc(-c3ccccc3[N+](=O)[O-])o2)C(C(=O)c2ccc(Cl)cc2)C(O)(C(F)(F)F)N1 (centres undefined),17 µM
26,COc1ccc(C2=NN(c3nc(C)cc(C)n3)C(=O)C2)cc1,5.75 µM
27,CCOC(=O)c1nnc(-c2ccccc2)nc1Sc1c(Cl)cccc1Cl,> 38 µM (inactive)

row,SMILES,AC50
1,CCC(C)Nc1nc(Cl)nc(N(C#N)CN2C(=O)c3ccccc3S2(=O)=O)n1 (centres undefined),> 38 µM (inactive)
2,COc1ccc(NC(=O)Nc2ccc(O)c3ccccc23)cc1,39.3 µM
3,O=C1/C(=C/c2cccc([N+](=O)[O-])c2)CCc2ccccc21,11.2 µM
4,CC(C)c1[nH]nc2c1C(c1cccs1)C(C#N)=C(N)O2 (centres undefined),> 38 µM (inactive)
5,CCN(CC)C(=O)CSc1nnc2nnc3cc(OC)ccc3n12,> 38 µM (inactive)
6,Oc1[nH]c2ccc(Br)cc2c1N=NC(=S)N1CCOCC1,> 38 µM (inactive)
7,CC1(C)N=C(SCC(=O)Nc2ccc(Cl)cc2)C(c2ccc(Cl)cc2)=N1,29.8 µM
8,COCc1[nH]nc2c1C(c1ccccc1F)C(C#N)=C(N)O2 (centres undefined),> 38 µM (inactive)
9,CCOC(=O)CC1=NN(c2ccccc2)C(=O)/C1=C\c1ccc(OC)cc1OC,2.34 µM
10,Cc1ccccc1CS(=O)(=O)c1snnc1C,> 38 µM (inactive)
11,O=c1[nH]c(Nc2ccccc2)cc2ccccc12,1.68 µM
12,c1ccc(CNc2nc(NCc3ccccc3)c3ccccc3n2)cc1,7.61 µM
13,CS/C(=C\[N+](=O)[O-])Nc1ccc(Cl)cc1,> 38 µM (inactive)
14,Cc1c(C)n(O)c2ccc3nonc3c12,26.8 µM
15,CCc1ccc(S(=O)(=O)/N=C2\C=CC(=O)c3ccccc32)cc1,2.6 µM
16,C/C(CC(=O)NCc1ccco1)=N\NC(=O)c1ccc([N+](=O)[O-])cc1Cl,> 38 µM (inactive)
17,CCOC(=O)C1CCN(c2nc(N)c3c(N)nc(SCC(=O)O)cc3c2C#N)CC1,> 12 µM (inactive)
18,O=[N+]([O-])c1ccc(N2CCCC(C(F)(F)F)C2)c2ccncc12 (centres undefined),> 38 µM (inactive)
19,COc1ccccc1-c1cn[nH]c(=S)n1,> 38 µM (inactive)
20,COc1ccc(C(=O)NC(=S)NNC(=O)CCc2ccccc2)cc1,> 38 µM (inactive)
21,COc1ccccc1NC(=O)c1cnc(SCC(=O)NCC2CCCO2)n(C)c1=O (centres undefined),> 38 µM (inactive)
22,CN(CCO)c1cc(Sc2nc3ccccc3s2)c2nonc2c1[N+](=O)[O-],7.53 µM
23,O=C(Nc1ccc(N2CCOCC2)cc1)Nc1ccc2nsnc2c1,> 38 µM (inactive)
24,CCOc1ccccc1Oc1coc2cc(OC(=O)c3ccco3)ccc2c1=O,> 38 µM (inactive)
25,O=C1C(Cl)=C(Nc2ccc3cn[nH]c3c2)C(=O)c2ccccc21,3.75 µM
26,CC(C)[C@H](NC(=O)OC(C)(C)C)c1nnc(S(=O)(=O)Cc2c(F)cccc2Cl)o1,> 38 µM (inactive)
27,CCNc1ccccc1CP(=O)(c1ccccc1)c1ccccc1O (centres undefined),22.6 µM
